target: T1, ArathEULS3 (Arabidopsis thaliana, UniProt Q945P1); test: glycan microarray v4.[…], fluorescence; type: binding; conditions: glycan immobilised through spacer; relative to glycan with highest signal
T1 sequence (Q945P1 2-317): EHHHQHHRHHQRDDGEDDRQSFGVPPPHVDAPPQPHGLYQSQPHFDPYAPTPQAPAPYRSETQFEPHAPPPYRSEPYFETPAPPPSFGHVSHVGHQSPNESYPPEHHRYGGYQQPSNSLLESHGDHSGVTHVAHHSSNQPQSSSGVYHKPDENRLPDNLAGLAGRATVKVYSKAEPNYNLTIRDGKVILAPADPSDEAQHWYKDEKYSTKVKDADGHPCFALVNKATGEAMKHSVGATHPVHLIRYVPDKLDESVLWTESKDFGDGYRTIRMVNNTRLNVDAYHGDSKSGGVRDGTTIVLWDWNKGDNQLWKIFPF

Compound	%RFU ^* / ArathEUL
CC(=O)N[C@H]1[C@H](OCCOCCOCCOCCOCCOCCN)O[C@H](CO)[C@@H](O[C@@H]2O[C@H](CO)[C@H](O)[C@H](O)[C@H]2O)[C@@H]1O [Galβ1-4GlcNAcβ-(OCH2CH2)6NH2]	15,6%
CC(=O)N[C@H]1[C@H](O[C@H]2[C@@H](O)[C@@H](CO)O[C@@H](O[C@H]3[C@H](O[C@@H]4O[C@@H](C)[C@@H](O)[C@@H](O)[C@@H]4O)[C@@H](NC(C)=O)[C@H](O[C@H]4[C@@H](O)[C@@H](CO)O[C@@H](O[C@H]5[C@H](O[C@@H]6O[C@@H](C)[C@@H](O)[C@@H](O)[C@@H]6O)[C@@H](NC(C)=O)[C@H](OCCN)O[C@@H]5CO)[C@@H]4O)O[C@@H]3CO)[C@@H]2O)O[C@H](CO)[C@@H](O[C@@H]2O[C@H](CO)[C@H](O[C@H]3O[C@H](CO)[C@@H](O)[C@H](O)[C@H]3NC(C)=O)[C@H](O)[C@H]2O)[C@@H]1O [GlcNAcα1-4Galβ1-4GlcNAcβ1-3Galβ1-4(Fucα1-3)GlcNAcβ1-3Galβ1-4(Fucα1-3)GlcNAcβ-Sp0]	37,2%
CC(=O)N[C@H]1[C@H](O[C@H]2[C@@H](O)[C@@H](CO)O[C@H](OCCCN)[C@@H]2NC(C)=O)O[C@H](CO)[C@@H](O)[C@@H]1O [GlcNAcβ1-3GalNAcα-Sp8]	37,0%
CC(=O)N[C@H]1[C@H](OCCN)O[C@H](CO)[C@@H](O[C@@H]2O[C@H](CO)[C@H](O)[C@H](O[C@]3(C(=O)O)C[C@H](O)[C@@H](NC(C)=O)[C@H]([C@H](O)[C@H](O)CO)O3)[C@H]2O)[C@@H]1O[C@@H]1O[C@@H](C)[C@@H](O)[C@@H](O)[C@@H]1O [Neu5Acα2-3Galβ1-4(Fucα1-3)GlcNAcβ-Sp0]	46,6%
Fucα1-2Galβ1-4(Fucα1-3)GlcNAcβ1-2Manα1-6(Fucα1-2Galβ1-4(Fucα1-3)GlcNAcβ1-2Manα1-3)Manβ1-4GlcNAcβ1-4(Fucα1-6)GlcNAcβ-6AA	18,9%
Fucα1-2Galβ1-4(Fucα1-3)GlcNAcβ1-3GalNAcα-Sp14	100,0%
GalNAcα1-3(Fucα1-2)Galβ1-4(Fucα1-3)GlcNAcβ1-3GalNAc-Sp14	73,6%
Galα1-3Galβ1-3GlcNAcβ1-2Manα1-3(Galα1-3Galβ1-3GlcNAcβ1-2Manα1-6)Manβ1-4GlcNAcβ1-4GlcNAc-Sp19	46,6%
Galβ1-4(Fucα1-3)GlcNAcβ1-4Galβ1-4(Fucα1-3)GlcNAcβ1-4Galβ1-4(Fucα1-3)GlcNAcβ-Sp0	22,7%
Galβ1-4(Fucα1-3)GlcNAcβ1-6GalNAc-Sp14	8,4%
Galβ1-4GlcNAcβ1-2Manα1-3(Galβ1-4GlcNAcβ1-2Manα1-6)Manβ1-4GlcNAcβ1-4GlcNAcβ-Sp12	9,1%
Galβ1-4GlcNAcβ1-4(Galβ1-4GlcNAcβ1-2)Manα1-3(GlcNAcβ1-4)(Galβ1-4GlcNAcβ1-6(Galβ1-4-GlcNAcβ1-2)Manα1-6)Manβ1-4GlcNAcβ1-4GlcNAc-Sp21	67,5%
Neu5Acα2-3-Galβ1-3(Galβ1-4(Fucα1-3)GlcNAcβ1-6)GalNAc-Sp14	14,8%

Reference: paper PMC3195871 (Biochemical and biophysical research communications, 2011)
